Results reported in US20220057378A1, “MICROBIAL MICROFLUIDIC BIOSENSOR” (priority 2015, published 2022).

Experiments:
pZA47a = experiment: SVM classification of GFP sensor responses (toxin / no toxin); assay type: cell-based, E. coli; settings: from classification accuracy and ROC curves
Description: (§1) Computational models to determine the threshold of detection for specific sensors based on models of experimental GFP responses. We used machine learning techniques to determine the relationships between the GFP output signal and the presence of a toxin. We have created a database containing the collected sensor response data. We have quantified the GFP threshold of detection for each sensor construct. We have constructed Receiver Operating Characteristic (ROC) curves for each sensor to achieve robust sensing. We constructed machine learning models capable of inferring the relationships between the GFP sensor responses and the presence or absence of a toxin at a given concentration. […] The optimal meta-parameters of the SVM classifier were determined by applying a 5-crossvalidation during the training phase (2). In order to have a reliable estimate of the performance of the model when deployed in real environments, we measured its performance over a set of samples (test patterns) not seen during the training phase. The SVM's performance was determined by the percentage of test samples correctly labeled as toxin/no toxin (classification accuracy). […]
(§2) In order to have a reliable estimate of the performance of the model when deployed in real environments, we measured its performance over a set of samples (test patterns) not seen during the training phase. […]

pRS18 = experiment: as above; assay type: cell-based, E. coli; settings: from classification accuracy and ROC curves; plasmid pRS18
Description: as §1, §2

E. coli MG1655/Cd1 = experiment: on-chip time-lapse induction of promoter construct (GFP, gill chip); assay type: cell-based
Description: For on-chip induction experiments, strains were loaded into the device and grown in M9 minimal medium with 0.4% glucose and 50 μg/ml spectinomycin (for plasmid maintenance) for 2 days in the absence of toxin. Cells were imaged under 4× brightfield and GFP fluorescence filters on an Olympus IX-81 microscope every 2 min for 6 h under these non-inducing conditions to generate a fluorescence baseline. The toxin was then introduced to induce GFP expression and the cells were imaged every 2 min for 6 h.
To determine the response to toxin induction, the raw fluorescence images before and after induction were compared. The image stacks were analyzed using a custom ImageJ script to measure the average GFP signal over time for each cell trap. Any linear trend in the uninduced fluorescence data due to cell growth was subtracted from the data. In this manner, the dynamic signal-to-noise ratio (SNR) was calculated as: (current fluorescence−mean uninduced fluorescence)/(standard deviation of uninduced fluorescence).
This microfluidic platform was then used to measure the response of several toxin responsive promoter constructs identified from the literature and synthesized by Transcriptic. […] Note that SNR values greater than 2 indicate a significant response.

[1] = test system: E. coli MG1655 containing pCueCopA; experiment: on-chip step-induction of copper-sensing plasmid pCueCopA (GFP); assay type: cell-based; settings: pCueCopA in E. coli MG1655, LB medium
Description: Second, induction of pCue-CopA, a copper-sensing plasmid, was tested in the microfluidic device. A recombinant strain of E. coli MG1655 containing pCueCopA was vacuum-loaded into a microfluidic device, grown to confluence, and step-induced with copper sulfate (CuSO4) in LB medium. Images were collected using an Etaluma LumaScope microscope with 20× objective magnification. Step induction was again performed using the “Dial-A-Wave” automated flow control system. The cells were sequentially exposed to copper concentrations of 0 μM, 25 μM, 52 μM, 77 μM, and 99 μM in 6-h windows.

[As] [Arsenic]
threshold of detection (pZA47a): 0.1 µM | threshold of detection (pRS18): 0.2 µM

[Cd] [Cadmium]
SNR after 6 h (E. coli MG1655/Cd1; 0.04 μM cadmium, 6 h induction, SNR > 2 = significant response): 17 | Concentration Sensed in Microfluidic Device (E. coli MG1655/Cd1; cadC/pcadC from S. aureus plasmid, native RBS): 0.04 µM

[Cu] [Copper]
copper concentration detected on-chip (GFP) [1]: 25 µM
